In PMC4879785, “GintAMT3 – a Low-Affinity Ammonium Transporter of the Arbuscular Mycorrhizal Rhizophagus irregularis” (Frontiers in Plant Science, 2016):

How the values were obtained:
GintAMT2 = target: T1, GintAMT2 (Rhizophagus intraradices, UniProt F8K9Q4); details: starting ammonium printed as 1 mM and 2 mM (Figure 5 legend)
T1 construct: gene amt2

GintAMT1 = target: T2, GintAMT1 (Rhizophagus intraradices, UniProt A2Q6J0); details: starting ammonium printed as 1 mM and 2 mM (Figure 5 legend)
T2 construct: gene AMT1
T2 sequence (A2Q6J0 1-479): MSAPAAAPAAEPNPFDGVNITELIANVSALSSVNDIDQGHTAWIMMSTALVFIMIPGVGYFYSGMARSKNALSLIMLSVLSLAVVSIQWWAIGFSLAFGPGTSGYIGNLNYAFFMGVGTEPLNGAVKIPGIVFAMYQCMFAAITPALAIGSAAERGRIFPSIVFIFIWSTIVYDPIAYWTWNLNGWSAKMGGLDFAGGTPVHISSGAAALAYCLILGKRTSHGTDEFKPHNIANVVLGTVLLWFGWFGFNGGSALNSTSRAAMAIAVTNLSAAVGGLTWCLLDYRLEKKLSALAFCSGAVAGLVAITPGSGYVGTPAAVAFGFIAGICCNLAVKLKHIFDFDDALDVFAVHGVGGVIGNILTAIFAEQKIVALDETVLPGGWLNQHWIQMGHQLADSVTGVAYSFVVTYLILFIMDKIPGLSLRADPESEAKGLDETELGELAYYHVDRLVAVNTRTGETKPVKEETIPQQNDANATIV

[1] = substrate: CN; experiment: cells, lysate or membranes; assay type: cell-based, Rhizophagus irregularis; details: pH 5, 50 mM KH2PO4, 20 mM glucose, 30 °C, labelled compound, 0-15 mM substrate, Hanes-Woolf plot

T1 sequence (F8K9Q4 1-470): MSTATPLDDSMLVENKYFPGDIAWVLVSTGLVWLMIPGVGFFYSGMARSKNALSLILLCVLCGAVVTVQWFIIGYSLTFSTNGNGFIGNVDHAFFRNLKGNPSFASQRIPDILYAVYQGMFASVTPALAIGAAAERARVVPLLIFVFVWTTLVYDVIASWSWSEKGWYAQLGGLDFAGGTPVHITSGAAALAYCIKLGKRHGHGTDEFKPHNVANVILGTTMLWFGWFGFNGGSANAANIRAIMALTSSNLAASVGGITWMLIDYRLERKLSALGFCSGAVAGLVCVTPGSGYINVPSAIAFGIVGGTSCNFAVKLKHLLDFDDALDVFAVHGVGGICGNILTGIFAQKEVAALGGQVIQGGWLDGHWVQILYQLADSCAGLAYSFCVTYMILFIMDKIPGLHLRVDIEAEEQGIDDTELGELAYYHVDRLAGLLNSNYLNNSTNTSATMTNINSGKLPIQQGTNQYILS

N [ammonium]
ammonium removal from medium by yeast (GintAMT2): GintAMT2 and GintAMT3 expressing cells imported ammonium at a slower rate | ammonium removal from medium by yeast (GintAMT1): Yeast cells expressing ScMEP1 and GintAMT1 took up ammonium quite rapidly.

B1: GintAMT3 (Rhizophagus irregularis) (protein)
chain: MSETSQPSQFKEGDIAWMLTSTAFVWLMIPGVGYFYSGMARSKNALSLILFCFLCVPVVAMQWFIWGYSLSFSRTGGLFIGNLRNAFFMNVRGEPTLKAESLPEIVHAIYQGMFAAITPSLAIGAAAERARMLPLLVFIFVWSTLVYDVIACWIWSANGWFKTIEGLDFAGGTPVHIASGAAALAYCVVLGKRHGHGRDEFKPHNNVNVILGTVFLWFGWFGFNGGSAFGANTRAAMAIMVTNTAASFGGLAWMLMDYRLERKFSALGFCSGAVAGLVCITPASGYVSPPVSVLFGITGGIACNLAVKLKHILDFDDALDVFAVHAVGGVAGNTLLGIFADKEMAALNGEIIHGGAIDGHSVQLGYQIASSIAGLTYSFCISALILYVMDRIPCLKLRMEPDEEEIGTDETELGEPAYYFLDRVVASIQVQIASKTMSSPQQTQLQSIDHIHYS
Km [1]: 1800 µM
